# Laboratory results: PMC4303209, “A novel phosphatidylinositol 3-kinase (PI3K) inhibitor directs a potent FOXO-dependent, p53-independent cell cycle arrest phenotype characterized by the differential induction of a subset of FOXO-regulated genes” (Breast Cancer Research : BCR, 2014)
# System: MCF-7 breast cancer cells
# Assay: Microarray gene expression analysis (Agilent whole human genome 4 x 44K; compound vs DMSO, LIMMA log2 fold change)
# Format: cell-based
structure (smiles),measurement,setting,value
Cn1ncc2c(N3CCOCC3)nc(-c3cccc(O)c3)nc21 [ETP-45658],BCL11B log2FC,"Apoptosis genes, Gene 64919",0.176
same,MRPL41 log2FC,"Apoptosis genes, Gene 64975",-0.545
same,PINK1 log2FC,"Apoptosis genes, Gene 65018",1.625
same,PRAMEF1 log2FC,"Apoptosis genes, Gene 65121",-0.072
same,PRAMEF2 log2FC,"Apoptosis genes, Gene 65122",0.062
same,UBE2Z log2FC,"Apoptosis genes, Gene 65264",-0.414
same,TMEM109 log2FC,"Apoptosis genes, Gene 79073",-0.626
same,CHAC1 log2FC,"Apoptosis genes, Gene 79094",-0.144
same,TNIP2 log2FC,"Apoptosis genes, Gene 79155",-0.126
same,PLEKHF1 log2FC,"Apoptosis genes, Gene 79156",-0.469
same,THOC6 log2FC,"Apoptosis genes, Gene 79228",-0.373
same,BCL2L14 log2FC,"Apoptosis genes, Gene 79370",-0.145
same,BIRC7 log2FC,"Apoptosis genes, Gene 79444",-0.043
same,ELMO3 log2FC,"Apoptosis genes, Gene 79767",-0.597
same,SLTM log2FC,"Apoptosis genes, Gene 79811",0.763
same,ZC3H12A log2FC,"Apoptosis genes, Gene 80149",-1.168
same,RNF34 log2FC,"Apoptosis genes, Gene 80196",-0.174
same,ELL3 log2FC,"Apoptosis genes, Gene 80237",1.095
same,CPEB4 log2FC,"Apoptosis genes, Gene 80315",0.577
same,COL18A1 log2FC,"Apoptosis genes, Gene 80781",-0.387
same,SGPP1 log2FC,"Apoptosis genes, Gene 81537",-0.165
same,SHARPIN log2FC,"Apoptosis genes, Gene 81858",-0.232
same,APH1B log2FC,"Apoptosis genes, Gene 83464",-0.559
same,RASSF5 log2FC,"Apoptosis genes, Gene 83593",-0.091
same,SOX7 log2FC,"Apoptosis genes, Gene 83595",-0.214
same,BCL2L12 log2FC,"Apoptosis genes, Gene 83596",-0.236
same,ITCH log2FC,"Apoptosis genes, Gene 83737",0.721
same,CDCA7 log2FC,"Apoptosis genes, Gene 83879",0.213
same,TATDN1 log2FC,"Apoptosis genes, Gene 83940",0.636
same,TM2D1 log2FC,"Apoptosis genes, Gene 83941",0.088
same,OBSCN log2FC,"Apoptosis genes, Gene 84033",0.277
same,TRAF7 log2FC,"Apoptosis genes, Gene 84231",-0.191
same,RHBDD1 log2FC,"Apoptosis genes, Gene 84236",-0.533
same,TCHP log2FC,"Apoptosis genes, Gene 84260",0.198
same,ZDHHC16 log2FC,"Apoptosis genes, Gene 84287",-0.471
same,ING5 log2FC,"Apoptosis genes, Gene 84289",-0.932
same,AKT1S1 log2FC,"Apoptosis genes, Gene 84335",-0.939
same,CARD11 log2FC,"Apoptosis genes, Gene 84433",0.083
same,SYVN1 log2FC,"Apoptosis genes, Gene 84447",0.455
same,ZC3H8 log2FC,"Apoptosis genes, Gene 84524",1.519
same,FNDC1 log2FC,"Apoptosis genes, Gene 84624",-0.102
same,CARD6 log2FC,"Apoptosis genes, Gene 84674",0.198
same,HINT2 log2FC,"Apoptosis genes, Gene 84681",-0.153
same,BEX2 log2FC,"Apoptosis genes, Gene 84707",0.736
same,TNS4 log2FC,"Apoptosis genes, Gene 84951",-1.366
same,ATG4D log2FC,"Apoptosis genes, Gene 84971",-0.461
same,SCRT2 log2FC,"Apoptosis genes, Gene 85508",-0.569
same,WNT3A log2FC,"Apoptosis genes, Gene 89780",-0.585
same,FGD3 log2FC,"Apoptosis genes, Gene 89846",0.596
same,UNC5A log2FC,"Apoptosis genes, Gene 90249",-0.468
same,BMF log2FC,"Apoptosis genes, Gene 90427",2.299
same,MTDH log2FC,"Apoptosis genes, Gene 92140",0.563
same,TIMM50 log2FC,"Apoptosis genes, Gene 92609",-0.439
same,TP53INP1 log2FC,"Apoptosis genes, Gene 94241",0.920
same,EGLN2 log2FC,"Apoptosis genes, Gene 112398",0.272
same,EGLN3 log2FC,"Apoptosis genes, Gene 112399",-0.474
same,PNMA5 log2FC,"Apoptosis genes, Gene 114824",0.435
same,SLC5A11 log2FC,"Apoptosis genes, Gene 115584",0.136
same,TWIST2 log2FC,"Apoptosis genes, Gene 117581",-0.722
same,RFFL log2FC,"Apoptosis genes, Gene 117584",-0.488
same,FGD4 log2FC,"Apoptosis genes, Gene 121512",0.637
same,RXFP2 log2FC,"Apoptosis genes, Gene 122042",-0.049
same,DCUN1D3 log2FC,"Apoptosis genes, Gene 123879",-1.081
same,ACVR1C log2FC,"Apoptosis genes, Gene 130399",0.259
same,IL31RA log2FC,"Apoptosis genes, Gene 133396",0.071
same,JMY log2FC,"Apoptosis genes, Gene 133746",1.016
same,UNC5D log2FC,"Apoptosis genes, Gene 137970",0.118
same,DYNLL2 log2FC,"Apoptosis genes, Gene 140735",-0.697
same,PSMA8 log2FC,"Apoptosis genes, Gene 143471",0.068
same,TICAM1 log2FC,"Apoptosis genes, Gene 148022",-0.493
same,BNIPL log2FC,"Apoptosis genes, Gene 149428",-0.061
same,ZSWIM2 log2FC,"Apoptosis genes, Gene 151112",0.088
same,DAB2IP log2FC,"Apoptosis genes, Gene 153090",-0.220
same,SLC5A8 log2FC,"Apoptosis genes, Gene 160728",-0.070
same,PTCRA log2FC,"Apoptosis genes, Gene 171558",-0.425
same,HIGD2A log2FC,"Apoptosis genes, Gene 192286",-0.398
same,FLCN log2FC,"Apoptosis genes, Gene 201163",0.968
same,HIPK1 log2FC,"Apoptosis genes, Gene 204851",-0.153
same,UNC5B log2FC,"Apoptosis genes, Gene 219699",-0.570
same,RNF152 log2FC,"Apoptosis genes, Gene 220441",-0.038
same,FGD2 log2FC,"Apoptosis genes, Gene 221472",-0.102
same,MPV17L log2FC,"Apoptosis genes, Gene 255027",-0.367
same,TMEM23 log2FC,"Apoptosis genes, Gene 259230",0.357
same,MAGI3 log2FC,"Apoptosis genes, Gene 260425",0.325
same,BLOC1S2 log2FC,"Apoptosis genes, Gene 282991",0.498
same,NRBP2 log2FC,"Apoptosis genes, Gene 340371",-0.074
same,NANOS3 log2FC,"Apoptosis genes, Gene 342977",-0.124
same,AMIGO2 log2FC,"Apoptosis genes, Gene 347902",0.532
same,C6orf120 log2FC,"Apoptosis genes, Gene 387263",-0.615
same,GDF6 log2FC,"Apoptosis genes, Gene 392255",-0.089
same,MYO18A log2FC,"Apoptosis genes, Gene 399687",-0.470
same,PRAMEF3 log2FC,"Apoptosis genes, Gene 401940",-0.272
same,ADIPOQ log2FC,"Apoptosis genes, Gene 414149",-0.245
same,PIM3 log2FC,"Apoptosis genes, Gene 415116",0.693
same,LGALS7 log2FC,"Apoptosis genes, Gene 653499",-0.163
same,CARD9 log2FC,"Apoptosis genes, Gene 728489",-0.457
same,PDCD6 log2FC,"Apoptosis genes, Gene 728613",-0.285
same,RRN3 log2FC,"Apoptosis genes, Gene 730092",0.619
same,CD24 log2FC,"Apoptosis genes, Gene 100133941",0.127
same,ACVR1 log2FC,"Gene 90, cell cycle genes",0.534
same,ACVR1B log2FC,"Gene 91, cell cycle genes",-0.563
same,ADCYAP1 log2FC,"Gene 116, cell cycle genes",0.068
same,AHR log2FC,"Gene 196, cell cycle genes",0.995
same,AIF1 log2FC,"Gene 199, cell cycle genes",-0.077
same,AK1 log2FC,"Gene 203, cell cycle genes",-0.344
same,AKT1 log2FC,"Gene 207, cell cycle genes",-0.608
same,AKT2 log2FC,"Gene 208, cell cycle genes",-0.554
same,ALOX15B log2FC,"Gene 247, cell cycle genes",-0.102
same,ANK3 log2FC,"Gene 288, cell cycle genes",0.532
same,ANXA1 log2FC,"Gene 301, cell cycle genes",0.991
same,ANXA11 log2FC,"Gene 311, cell cycle genes",-0.496
same,APBB1 log2FC,"Gene 322, cell cycle genes",0.078
same,APBB2 log2FC,"Gene 323, cell cycle genes",-0.357
same,APEX1 log2FC,"Gene 328, cell cycle genes",0.266
same,BIRC2 log2FC,"Gene 329, cell cycle genes",0.082
same,APP log2FC,"Gene 351, cell cycle genes",0.379
same,ARF6 log2FC,"Gene 382, cell cycle genes",-0.682
same,RHOB log2FC,"Gene 388, cell cycle genes",-0.133
same,RHOC log2FC,"Gene 389, cell cycle genes",-0.491
same,ARL2 log2FC,"Gene 402, cell cycle genes",-0.140
same,ARL3 log2FC,"Gene 403, cell cycle genes",0.192
same,ASNS log2FC,"Gene 440, cell cycle genes",-0.404
same,BACH1 log2FC,"Gene 571, cell cycle genes",0.774
same,BARD1 log2FC,"Gene 580, cell cycle genes",0.487
same,BBS4 log2FC,"Gene 585, cell cycle genes",1.207
same,CCND1 log2FC,"Gene 595, cell cycle genes",-1.564
same,BCL2 log2FC,"Gene 596, cell cycle genes",-0.310
same,BCL2L1 log2FC,"Gene 598, cell cycle genes",-0.991
same,BCR log2FC,"Gene 613, cell cycle genes",-0.914
same,BID log2FC,"Gene 637, cell cycle genes",-0.095
same,BMP2 log2FC,"Gene 650, cell cycle genes",-0.038
same,BMP7 log2FC,"Gene 655, cell cycle genes",-0.344
same,DST log2FC,"Gene 667, cell cycle genes",0.571
same,BRCA1 log2FC,"Gene 672, cell cycle genes",0.792
same,BRDT log2FC,"Gene 676, cell cycle genes",0.068
same,BUB1 log2FC,"Gene 699, cell cycle genes",0.803
same,CALM1 log2FC,"Gene 801, cell cycle genes",0.216
same,CALR log2FC,"Gene 811, cell cycle genes",-0.081
same,CAMK2A log2FC,"Gene 815, cell cycle genes",0.024
same,CAMK2D log2FC,"Gene 817, cell cycle genes",0.613
same,CAMK2G log2FC,"Gene 818, cell cycle genes",0.874
same,CASP2 log2FC,"Gene 835, cell cycle genes",-0.918
same,CAV2 log2FC,"Gene 858, cell cycle genes",0.696
same,RUNX3 log2FC,"Gene 864, cell cycle genes",-0.494
same,CCNA2 log2FC,"Gene 890, cell cycle genes",-0.047
same,CCNB1 log2FC,"Gene 891, cell cycle genes",0.072
same,CCNC log2FC,"Gene 892, cell cycle genes",0.257
same,CCND2 log2FC,"Gene 894, cell cycle genes",-1.006
same,CCND3 log2FC,"Gene 896, cell cycle genes",-0.730
same,CCNE1 log2FC,"Gene 898, cell cycle genes",-0.471
same,CCNG1 log2FC,"Gene 900, cell cycle genes",0.908
same,CCNG2 log2FC,"Gene 901, cell cycle genes",3.913
same,CD28 log2FC,"Gene 940, cell cycle genes",0.087
same,CDC5L log2FC,"Gene 988, cell cycle genes",1.004
same,CDC6 log2FC,"Gene 990, cell cycle genes",-0.800
same,CDC20 log2FC,"Gene 991, cell cycle genes",-0.346
same,CDC25A log2FC,"Gene 993, cell cycle genes",-1.970
